Results published in patent US12029738B2, “Antiproliferative compounds and methods of use thereof” (Celgene Corporation, priority 2017, dated 2024).

Tests used:
[1] = system: OPM2-P10 (pomalidomide-resistant); experiment: Cell proliferation assay (CTG, 120 h); type: cell-based; settings: Homo sapiens, read-out: OPM-2.P10 120 h IC50
Procedure: (§1) Cell Culture Materials: Human multiple myeloma cell lines were purchased from the vendors and cultured at 37° C. with 5% CO2 in the media as indicated in Table 1. Lenalidomide and pomalidomide resistant cell lines were obtained by methods as generally described previously (Lopez-Girona et al Leukemia 2012; 26(11): 2335). All cell lines were kept in log phase, and cell density and viability were monitored by trypan blue exclusion using the Vi-cell XR cell viability analyzer (Beckman Coulter, Brea, CA).
(§2) Preparation of Solutions of Test Article: Compounds were plated into black 384-well plates (Corning Inc.) to a final DMSO volume of 0.1% assuming a maximal volume of 50 μL. A 10-point dose response starting at 10 μM with a 1:3 dilution was printed in duplicate by acoustic dispense using the EDC ATS-100 platform. Alternatively, the 10-point dose response starting at 10 μM with a 1:10 dilution, or starting at 100 nM with a 1:3 dilutions were used.
(§3) Cell Proliferation Assays: The effect of compounds on the proliferation/viability of the hematological cell lines (Table 1), was assessed after 120 h incubation using CTG (Promega), according to manufacturer's instructions. Hematological cell lines were dispensed into compound plates by a Multidrop Combi Reagent Dispenser (Thermo Scientific, Waltham, MA) at a concentration of 0.1×10^6 cells per mL in a 50 μL total volume. At 120 h, 25 μL per well of CTG was dispensed by a Multidrop Combi Reagent Dispenser and adenosine triphosphate (ATP) release by viable cells was measured as relative luminescence units after 30 minutes using the Envision platform.
(§4) Results. […] The MM cell lines selected for this study were lines sensitive and resistant to lenalidomide and/or pomalidomide (Table 1), two agents used in the clinic to treat myeloma patients. Proliferation was assessed using the CellTitre-Glo© assay. Results for cultures incubated with the compounds were normalized to results for control cultures for each cell line. The IC50 for inhibition of cell growth by the compounds was determined for each cell line using ActivityBase software.

OPM2 = experiment: Cell proliferation assay (CTG, 120 h); type: cell-based; settings: Homo sapiens, OPM-2
Procedure: as §1, §2, §3, §4

NCI-H929 [2] = experiment: Cell proliferation assay (CTG, 120 h); type: cell-based; settings: Homo sapiens
Procedure: as §1, §2, §3, §4

MM1-S = experiment: Flow cytometry proliferation/apoptosis assay (120 h); type: cell-based, human; settings: for IC50: Homo sapiens, MM1-S, read-out: Antiproliferative Activity (Flow Cytometry) IC50; for induced apoptosis AUC (area under the dose response curve): MM1.S, 10000 = complete induction at all doses, 0 = none
Procedure: (§5) Methods. […] Twenty MM cell lines (Table 7 and 8) (including the plasma cell leukemia (PCL) cell lines L363, JJN-3, ARH-77, and SKMM-2) were treated in duplicate with escalating concentrations of Compound 2 or pomalidomide, ranging from 0.015 to 100 nM. Using 5 mM stocks, compounds were pre-spotted into the appropriate wells of 96-well plates using a Hewlett-Packard D300 Digital Dispenser. Cells were added to 96-well plates using a Multidrop Combi Reagent Dispenser. After 5 days of treatment, flow cytometric analysis was used to determine the number of cells that were alive, dead, or apoptotic. After 5 days of treatment, cells were incubated with annexin V to stain exposed phosphatidylserine, an apoptotic cell-surface marker, and the vital dye 7-AAD, which is excluded from cells with intact cell membranes, and analyzed by flow cytometry (Attune®, Thermo Fisher). Analysis was then performed to determine the number of live cells (annexin V and 7-AAD double negative staining cells) and the percentage of apoptotic cells (annexin V positive cells) for each condition, relative to the DMSO control treated, was calculated. All described values were normalized to DMSO-only treated cells. All proliferation and apoptosis induction curves were processed and graphed as percent of control using XLFit (IDBS, Alameda, CA) and GraphPad Prism 7.03 (GraphPad Software, La Jolla, CA). The live cell count for every concentration was normalized to the DMSO control (considered as 100%) in Microsoft Excel to generate the proliferation curves. […] Similarly, for apoptosis analysis, the percentage of drug-induced apoptosis was calculated for all doses by combining both “early” (annexin V positive and 7-AAD negative) and “late” apoptosis (annexin V and 7-AAD positive) values and subtracting background values (cell treated with vehicle control DMSO). The AUC values for apoptosis curves were calculated by performing area under curve analysis on GraphPad Prism 7.03. The area under the dose-response curve (AUC) was calculated since it integrates potency and efficacy of the drugs to represent apoptosis into a single parameter. The IC50 values for Compound 2 and pomalidomide in the flow cytometry assays are presented Table 9.
(§6) The apoptosis induction effect of Compound 2 was assessed using flow cytometry after 120 h of treatment and compared with pomalidomide treatment. […] Each data point represents 2 independent experiments with at least two samples in each experiment. (Table 10).

LP-1 = experiment: as above; type: cell-based, human; settings: for IC50: Homo sapiens, read-out: Antiproliferative Activity (Flow Cytometry) IC50; for induced apoptosis AUC (area under the dose response curve): scale 0-10000
Procedure: as §5, §6

NCI-H929 [3] = experiment: as above; type: cell-based, human; settings: for IC50: Homo sapiens, read-out: Antiproliferative Activity (Flow Cytometry) IC50; for induced apoptosis AUC (area under the dose response curve): scale 0-10000
Procedure: as §5, §6

KMS-12-PE = experiment: as above; type: cell-based, human; settings: for IC50: Homo sapiens, read-out: Antiproliferative Activity (Flow Cytometry) IC50; for induced apoptosis AUC (area under the dose response curve): scale 0-10000
Procedure: as §5, §6

ANBL-6 = experiment: as above; type: cell-based, human; settings: for IC50: Homo sapiens, read-out: Antiproliferative Activity (Flow Cytometry) IC50; for induced apoptosis AUC (area under the dose response curve): scale 0-10000
Procedure: as §5, §6

K562 cells = experiment: Coculture of compound-treated IL-2-activated PBMCs with K562 cells; type: cell-based, human; settings: for IC50: Homo sapiens, K562, IL-2-activated PBMCs treated 72 h, 4 h coculture, read-out: IC50 of compound-treated PBMCs for direct K562 cell killing
Procedure: Coculture Experiments with Peripheral Blood Mononuclear Cells and K562 Cells. Methods: Human Peripheral Blood Mononuclear Cell (PBMC) Preparation: PBMCs isolated from healthy donors were cultured in RPMI 1640 medium with 10% FBS at a density of 1×10^6 cells/mL.
Cell Culture: K562 cells were kept in log phase, and cell density and viability were monitored by trypan blue exclusion using the Vi-CELL® XR cell viability analyzer (Beckman Coulter, Brea, CA).
Assay Procedures: Freshly isolated human PBMCs were cultured with recombinant IL-2 at concentration of 20 units/mL for 72 h. Peripheral blood mononuclear cells were then spun down and re-suspended in fresh RPMI complete medium to 2×10^6 cells/mL. Cells were then treated with DMSO or compounds at the indicated concentrations and incubated for an additional 72 h. The PBMCs were then washed twice in fresh RPMI complete medium prior to coculture. K562 cells were re-suspended to a cell density of 1×10^6/mL and stained with 1 μM CellTrace CFSE according to manufacturer's instructions. The labeled K562 cells were then seeded into a 96-well round bottom plate at 1×10^5 cells/well. Peripheral blood mononuclear cells were then transferred into the same 96-well plate at a 1:15 ratio, in triplicate and incubated at 37° C. for 4 h. Specific target cell lysis by PBMC cells was measured using Annexin V-fluorescein isothiocyanate (FITC) and propidium iodide (PI) according to manufacturer's instructions and samples were run on the FACS Array scan. Non-labeled K562 cells, CellTrace CFSE-labeled K562 cells, and Annexin V-FITC- and PI labeled untreated K562 cells were included in each assay as controls.

N#Cc1ccc(N2CCN(Cc3ccc(COc4cccc5c4CN(C4CCC(=O)NC4=O)C5=O)cc3)CC2)c(F)c1 (racemic) [Compound 1, 4-(4-(4-(((2-(2,6-dioxopiperidin-3-yl)-1-oxoisoindolin-4-yl)oxy)methyl)benzyl)piperazin-1-yl)-3-fluorobenzonitrile]
IC50 [1]: 19 nM | IC50 (OPM2): < 0.5 nM | IC50 (NCI-H929 [2]): < 0.5 nM

N#Cc1ccc(N2CCN(Cc3ccc(COc4cccc5c4CN([C@H]4CCC(=O)NC4=O)C5=O)cc3)CC2)c(F)c1 [Compound 2, (S)-4-(4-(4-(((2-(2,6-dioxopiperidin-3-yl)-1-oxoisoindolin-4-yl)oxy)methyl)benzyl)piperazin-1-yl)-3-fluorobenzonitrile]
IC50 [1]: 4.3 nM | IC50 (OPM2): 0.07 nM | IC50 (NCI-H929 [2]): 0.07 nM | IC50 (MM1-S): 0.04 nM | induced apoptosis AUC (area under the dose response curve) (MM1-S): 5701 | IC50 (LP-1): 0.14 nM | induced apoptosis AUC (area under the dose response curve) (LP-1): 630.7 | IC50 (NCI-H929 [3]): 0.05 nM | induced apoptosis AUC (area under the dose response curve) (NCI-H929 [3]): 6089 | IC50 (KMS-12-PE): 0.09 nM | induced apoptosis AUC (area under the dose response curve) (KMS-12-PE): 2017 | IC50 (ANBL-6): 0.06 nM | induced apoptosis AUC (area under the dose response curve) (ANBL-6): 4751 | potency relative to lenalidomide-treated PBMCs (K562 cells; 50% direct K562 cell killing): ~2600 fold | potency relative to pomalidomide-treated PBMCs (K562 cells; 50% direct K562 cell killing): ~600 fold | IC50 (K562 cells): 5900 nM

Nc1cccc2c1C(=O)N(C1CCC(=O)NC1=O)C2=O (stereo not drawn) [Pomalidomide, pomalidomide]
IC50 (MM1-S): 33.7 nM | induced apoptosis AUC (area under the dose response curve) (MM1-S): 3525 | IC50 (LP-1): 176 nM | induced apoptosis AUC (area under the dose response curve) (LP-1): 174 | IC50 (NCI-H929 [3]): 63.1 nM | induced apoptosis AUC (area under the dose response curve) (NCI-H929 [3]): 2115 | IC50 (KMS-12-PE): 83.8 nM | induced apoptosis AUC (area under the dose response curve) (KMS-12-PE): 1069 | IC50 (ANBL-6): 60.6 nM | induced apoptosis AUC (area under the dose response curve) (ANBL-6): 2580 | IC50 (K562 cells): 4 nM
